The half-life is the time needed for the level to fall by half in the phase considered. Usually AUC(0-t) stands for exposure summed from dosing to a finite time, without extrapolation to infinity. Low readings indicate less exposure, high ones more exposure. The bioavailability is dose-corrected exposure relative to a reference, in per cent. A high value points to good availability. One may read the Cmax as the peak of the concentration-time curve. A word on the clearance: it is the rate of elimination divided by the concentration. A lower clearance goes with a low capacity for elimination.

Consider twelve molecules from ChEMBL document CHEMBL4828744, “Design, synthesis and biological evaluation of pyridinylmethylenepiperidine derivatives as potent 5-HT1F receptor agonists for migraine therapy” (Eur J Med Chem, 2021).

Calls of active or inactive are those of the source.

A short description of data set [1]: Half life in Sprague-Dawley rat at 1 mg/kg, iv measured for 24 hrs by LC-MS/MS analysis. It counts as ADME, organism-based. The settings on record: in vivo.
A short description of data set [2]: AUC(0 to t) in Sprague-Dawley rat at 5 mg/kg, ig measured for 24 hrs by LC-MS/MS analysis. The class given is ADME, organism-based. Set-up: time 24 hrs, dose 5 mg/kg. The settings on record: in vivo, po.
A short description of data set [3]: Bioavailability in Sprague-Dawley rat at 5 mg/kg, ig measured for 24 hrs by LC-MS/MS analysis. The class given is ADME, organism-based. The settings on record: in vivo, po.
A short description of data set [4]: Half life in Sprague-Dawley rat at 5 mg/kg, ig measured for 24 hrs by LC-MS/MS analysis. The class given is ADME, organism-based. The settings on record: in vivo, po.
Data set [5] deals with T1, 5-hydroxytryptamine receptor 1F (Homo sapiens, UniProt P30939).
T1 sequence (P30939 whole entry): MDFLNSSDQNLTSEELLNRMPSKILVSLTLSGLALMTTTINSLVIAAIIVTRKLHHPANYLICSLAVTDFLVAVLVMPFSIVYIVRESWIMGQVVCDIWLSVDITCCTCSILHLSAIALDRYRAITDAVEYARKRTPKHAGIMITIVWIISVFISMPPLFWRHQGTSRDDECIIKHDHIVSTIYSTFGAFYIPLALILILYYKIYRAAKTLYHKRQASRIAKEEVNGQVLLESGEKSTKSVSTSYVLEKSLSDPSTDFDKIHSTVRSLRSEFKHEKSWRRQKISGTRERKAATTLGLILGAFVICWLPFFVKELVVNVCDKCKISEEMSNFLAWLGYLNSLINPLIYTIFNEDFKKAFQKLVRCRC
In words: Agonist activity at 5HT1F receptor (unknown origin) expressed in HEK293 cells measured after 60 mins by Fluo-4AM dye based FLIPR assay. The class given is functional, cell-based. As to conditions: read-out: IC50 (the source's name).

In data set [6] the target is T2, 5-hydroxytryptamine receptor 1F (Homo sapiens) (UniProt P30939).
T2 sequence (whole entry): T1 sequence (P30939 whole entry)
In words: Potency index, ratio of lasmiditan EC50 to test compound EC50 for agonist activity at 5HT1F receptor (unknown origin) expressed in HEK293 cells measured after 60 mins by Fluo-4AM dye based FLIPR assay. It counts as functional, cell-based.

Data set [7] in a line: AUC(0 to t) in Sprague-Dawley rat at 1 mg/kg, iv measured for 24 hrs by LC-MS/MS analysis. It counts as ADME, organism-based. Set-up: time 24 hrs, dose 1 mg/kg. The settings on record: in vivo.
The nature of data set [8]: Cmax in Sprague-Dawley rat at 5 mg/kg, ig measured for 24 hrs by LC-MS/MS analysis. It counts as ADME, organism-based. Also on record: route intragastric, time 24 hrs, dose 5 mg/kg. The settings on record: in vivo, po.
The nature of data set [9]: Volume of distribution at steady state in Sprague-Dawley rat at 1 mg/kg, iv measured for 24 hrs by LC-MS/MS analysis. It counts as ADME, organism-based. The settings on record: in vivo, read-out: Vdss.
Data set [10] in a line: Clearance in Sprague-Dawley rat at 1 mg/kg, iv measured for 24 hrs by LC-MS/MS analysis. The class given is ADME, organism-based. As to conditions: in vivo.
Data set [11] in a line: Cmax in Sprague-Dawley rat at 1 mg/kg, iv measured for 24 hrs by LC-MS/MS analysis. The class given is ADME, organism-based. The settings on record: in vivo. Set-up: route intravenous, dose 1 mg/kg, time 24 hrs.
The test system of data set [12] is Rattus norvegicus. In words: Antimigraine activity against electrical stimulation of trigeminal ganglion migraine Wistar rat model assessed as reduction in c-Fos-positive cells at 10 ug/kg, po measured after 60 mins by confocal fluorescence microscopic analysis. The class given is functional, organism-based. The settings on record: dose 10.0 µg/kg.
Data set [13] has as its system Rattus norvegicus. Kind of data set: Antimigraine activity against electrical stimulation of trigeminal ganglion migraine Wistar rat model assessed as reduction in dural plasma protein extravasation at 0.01 ug/kg, po measured after 45 mins by confocal fluorescence microscopic analysis. It counts as functional, organism-based. As to conditions: dose 0.01 µg/kg.
Data set [14] in a line: Toxicity in NewZealand rabbit Saphenous vein rings assessed as induction of vasoconstriction at 0.01 to 100 uM. It counts as tissue-based, Oryctolagus cuniculus. The settings on record: dose 0.01-100 µM.
Data set [15] can be described thus: Toxicity in NewZealand rabbit Saphenous vein rings assessed as induction of vasoconstriction at 1 to 100 uM. The class given is tissue-based, Oryctolagus cuniculus. The settings on record: dose 1-100 µM.

For `CN1CCC(=C(F)c2cccc(NC(=O)c3ccc(F)cc3)n2)CC1`, the half-life is 1.37 h in data set [1] and 1.41 h in data set [4]. The AUC(0-t) at 24 h in data set [2] stood at 0.157 µg·h/mL; in [7] it was 0.104 µg·h/mL. Moreover, the bioavailability in data set [3] turned out to be 32.5%. Moreover, the EC50 in [5] was found to be 0.00636 µM. For the same molecule, the Ratio EC50 in data set [6] was found to be 3. Further, the Cmax in [8] was found to be 0.0341 µg/mL; in data set [11], 0.0753 µg/mL. Further, the Vd in [9] is 17.3 L/kg. Besides, the clearance in data set [10] is 9.36 L/h/kg.

Regarding `CN1CCC(=C(F)c2cccc(NC(=O)c3ccc(Cl)cn3)n2)CC1`, the EC50 in [5] was determined as 0.161 µM.

Turning to `CN1CCC(C(=O)c2cccc(NC(=O)c3c(F)cc(F)cc3F)n2)CC1` [LASMIDITAN], the half-life in data set [1] is 3.12 h; in data set [4] it was 3.38 h. Also, the AUC(0-t) at 24 h in [2] stood at 0.386 µg·h/mL; in [7], 0.105 µg·h/mL. The result in the data set with Rattus norvegicus [12] and in the data set with Rattus norvegicus [13] was Active. The molecule further registered a bioavailability in data set [3] of 63.2%. Besides, the Cmax in data set [8] came out at 0.0909 µg/mL; in data set [11], 0.0281 µg/mL. Besides, in [9], the Vd worked out at 32.2 L/kg. The clearance in [10] was 7.62 L/h/kg. In data set [14], the Activity result is on record as “Non-Toxic”.

For the molecule `CNS(=O)(=O)Cc1ccc2[nH]cc(CCN(C)C)c2c1` [SUMATRIPTAN], the Activity entry in data set [15] was “Toxic”.

Turning to `CN1CCC(=C(F)c2cccc(NC(=O)c3ccc(Cl)cc3)n2)CC1`, the half-life was 1.6 h in [1] and 2.41 h in data set [4]. In addition, the AUC(0-t) at 24 h is 0.151 µg·h/mL in [2] and 0.0894 µg·h/mL in [7]. In data set [3], this molecule came in with a bioavailability of 39%. For the same molecule, the EC50 in data set [5] worked out at 0.0293 µM. Also, the Ratio EC50 in data set [6] is 3. Moreover, the Cmax worked out at 0.0357 µg/mL in data set [8] and 0.061 µg/mL in data set [11]. In addition, in data set [9], the Vd came to 20.3 L/kg. The molecule also displayed a clearance in data set [10] of 10.8 L/h/kg.

Regarding `O=C(Nc1cccc(C(F)=C2CCN(C(F)F)CC2)n1)c1c(F)cc(F)cc1F`, the EC50 in data set [5] amounted to 0.813 µM.

`CN1CCC(=C(F)c2cccc(NC(=O)c3ccc(F)cc3F)n2)CC1`: the half-life in data set [1] is 1.05 h; in [4], 0.824 h. Moreover, the AUC(0-t) at 24 h in [2] was 0.0446 µg·h/mL; in data set [7], 0.0704 µg·h/mL. The same molecule registered a bioavailability in data set [3] of 12.9%. Further, in data set [5], the EC50 was found to be 0.00467 µM. Besides, in data set [6], the Ratio EC50 worked out at 3. Moreover, the Cmax was 0.00971 µg/mL in [8] and 0.0744 µg/mL in data set [11]. Besides, the Vd in [9] was 17.7 L/kg. In addition, in data set [10], the clearance turned out to be 13.7 L/h/kg.

Turning to `O=C(Nc1cccc(C(F)=C2CCN(C3CC3)CC2)n1)c1c(F)cc(F)cc1F`, the EC50 in data set [5] came to 0.57 µM.

On to `O=C(Nc1cccc(C(F)=C2CCN(C(F)(F)F)CC2)n1)c1c(F)cc(F)cc1F`, for which the EC50 in [5] is above 10 µM.

For `CN1CCC(=C(F)c2cccc(NC(=O)c3ccc(F)cn3)n2)CC1`, the half-life in data set [1] was 0.924 h; in [4], 1.24 h. Besides, the AUC(0-t) at 24 h in data set [2] stood at 0.121 µg·h/mL; in data set [7], 0.103 µg·h/mL. The bioavailability in data set [3] was found to be 23.7%. For the same molecule, the EC50 in data set [5] was determined as 0.0243 µM. For the same molecule, the Cmax was 0.0347 µg/mL in [8] and 0.0949 µg/mL in data set [11]. In data set [9], the Vd amounted to 11 L/kg. In data set [10], this molecule registered a clearance of 9.54 L/h/kg.

In the case of `CN1CCC(=C(F)c2cccc(NC(=O)c3ccc(Cl)cc3F)n2)CC1`, the half-life is 1.42 h in data set [1] and 1.68 h in data set [4]. In addition, the area under the curve AUC(0-t) at 24 h amounted to 0.105 µg·h/mL in data set [2] and 0.0905 µg·h/mL in data set [7]. Besides, in [3], the bioavailability stood at 26.2%. In addition, the EC50 in data set [5] is 0.0234 µM. Moreover, in data set [6], the Ratio EC50 is 3. The Cmax amounted to 0.0232 µg/mL in data set [8] and 0.0722 µg/mL in data set [11]. The Vd in data set [9] amounted to 20.1 L/kg. The molecule further gave a clearance in [10] of 10.7 L/h/kg.

Consider `CCN1CCC(=C(F)c2cccc(NC(=O)c3c(F)cc(F)cc3F)n2)CC1`, for which the EC50 in data set [5] was 0.178 µM.
